For this experiment, the system named is LH secretion. The experiment can be described thus: LH secretion in ovariectomized mice after i.p. injection of a PRKA (serum LH by radioimmunoassay). It is filed as in vivo. The procedure:
Female mice (000664 C57BL/6J) were obtained from The Jackson Laboratory (Sacramento, Calif., USA) at 8 weeks of age. All animals were housed on a 12:12-h light-dark cycle (lights off at 1800) with food and water available ad libitum. All experiments were conducted in accordance with the National Institutes of Health (NIH) Animal Care and Use Guidelines and with approval of the Animal Care and Use Committee of the University of Washington.
Mice were ovariectomized 13 days prior to the experiment, which occurred at approximately 11 weeks of age. Mice were anesthetized with isoflurane and bilaterally ovariectomized (OVX). Briefly, the animal's ventral skin was shaved and cleaned, and small incisions were made in the skin and abdominal musculature. The gonads were identified and excised, the abdominal muscle was sutured, and the skin incision was closed with surgical clips.
Mice were injected i.p. (<500 μl) with vehicle [0.9% sterile saline (Hospira, Lake Forest, Ill., USA) with 3.6% sterile DMSO (Sigma Aldrich, Inc., St. Louis, Mo., USA), n=7] or the following doses of the PRKA, ICI204,448 hydrochloride (Tocris Bioscience, Bristol, UK), diluted in sterile saline/DMSO: 0.1 mg/kg (0.018% DMSO, n=6), 1 mg/kg (0.18% DMSO, n=4), 10 mg/kg (1.8% DMSO, n=5), or 20 mg/kg (3.6% DMSO, n=7). N.B. 1 mg/kg and 10 mg/kg groups run in different experiment/assay. […]

One molecule from patent publication US11083726B2, “Methods and compositions for treating vasomotor symptoms” (UNIVERSITY OF WASHINGTON THROUGH ITS CENTER FOR …, priority 2012, dated 2021) can be followed below.

Regarding `CN(C(=O)Cc1ccc(Cl)c(Cl)c1)C(CN1CCCC1)c1cccc(OCC(=O)O)c1.Cl` (racemic) [ICI 204,448 hydrochloride, (RS)-[3-[1-[[(3,4-Dichlorophenyl)acetyl]methylamino]-2-(1-pyrrolidinyl)ethyl]phenoxy]acetic acid hydrochloride], the “LH secretion (FIG. 2)” value (mice, 0.1, 1, 10, 20 mg/kg i.p., 1 mg/kg and 10 mg/kg in different experiment/assay) was “dose-dependent decrease”. Besides, the LH post injection result (ovariectomized mice, High Dose 20 mg/kg i.p., 20 minutes after injection, vs. Low Dose 0.1 mg/kg (P<0.01) and Vehicle (P<0.001)) is reported as “significantly decreased”.
